From PubChem BioAssay AID1259407 (Chemical Carcinogenesis Research Information System (CCRIS), 2018)
The source made the active and inactive calls. No rule for the calls is given here.

Test system: CCRIS mutagenicity, Ames/micronucleus/aberration tests
Assay: CCRIS mutagenicity studies

With `Cc1ccccc1N` the mutagenic call (End Point: IN VIVO MICRONUCLEUS, Test System: HEPATOCYTES, Species: RAT, Strain/Sex: FISHER 344 OR SD/MALE, Route: ORAL OR IP) was “inactive; negative”, the mutagenic call (End Point: IN VIVO MICRONUCLEUS, Test System: PERIPHERAL BLOOD RETICULOCYTES, Species: RAT, Strain/Sex: FISHER 344 OR SD/MALE, Route: ORAL OR IP) was “active; positive” and the mutagenic call (Test System: AMES SALMONELLA TYPHIMURIUM, Strain/Indicator: TA97, Metabolic Activation: HAMSTER LIVER S-9, AROCLOR 1254 (10 OR 30%), Method: PREINCUBATION) was “inactive; negative”. For the same compound, the mutagenic call (Test System: AMES SALMONELLA TYPHIMURIUM, Strain/Indicator: TA97, Metabolic Activation: NONE, Method: PREINCUBATION) was “inactive; negative”, the mutagenic call (Test System: AMES SALMONELLA TYPHIMURIUM, Strain/Indicator: TA97, Metabolic Activation: NONE, Method: STANDARD PLATE) was “inactive; negative” and the mutagenic call (Test System: AMES SALMONELLA TYPHIMURIUM, Strain/Indicator: TA97, Metabolic Activation: RAT LIVER S-9, AROCLOR 1254 (10 OR 30%), Method: PREINCUBATION) was “inactive; negative”. The mutagenic call (Test System: AMES SALMONELLA TYPHIMURIUM, Strain/Indicator: TA97, Metabolic Activation: RAT, LIVER, S-9, PHENOBARBITAL AND 5,6-BENZOFLAVONE, Method: PREINCUBATION) was “inactive; negative”, the mutagenic call (Test System: AMES SALMONELLA TYPHIMURIUM, Strain/Indicator: TA97, Metabolic Activation: S-9, Method: STANDARD PLATE) was “inactive; negative” and the mutagenic call (Test System: AMES SALMONELLA TYPHIMURIUM, Strain/Indicator: TA98, Metabolic Activation: HAMSTER LIVER S-9, AROCLOR 1254 (10 OR 30%), Method: PREINCUBATION) was “inactive; negative”. The mutagenic call (Test System: AMES SALMONELLA TYPHIMURIUM, Strain/Indicator: TA98, Metabolic Activation: HAMSTER, LIVER, S-9, AROCLOR 1254 (10%), Method: PREINCUBATION) was “inactive; negative”, the mutagenic call (Test System: AMES SALMONELLA TYPHIMURIUM, Strain/Indicator: TA98, Metabolic Activation: HAMSTER, LIVER, S-9, AROCLOR 1254 (30%), Method: PREINCUBATION) was “inactive; negative” and the mutagenic call (Test System: AMES SALMONELLA TYPHIMURIUM, Strain/Indicator: TA98, Metabolic Activation: HAMSTER, LIVER, S-9, SODIUM PHENOBARBITAL AND 5,6-BENZOFLAVONE, Method: PREINCUBATION) was “inactive; negative”. For the same compound, the mutagenic call (Test System: AMES SALMONELLA TYPHIMURIUM, Strain/Indicator: TA98, Metabolic Activation: HAMSTER, LIVER, S-9, Method: PREINCUBATION (PRIVAL METHOD)) was “active; positive”, the mutagenic call (Test System: AMES SALMONELLA TYPHIMURIUM, Strain/Indicator: TA98, Metabolic Activation: NONE, Method: PREINCUBATION) was “inactive; negative” and the mutagenic call (Test System: AMES SALMONELLA TYPHIMURIUM, Strain/Indicator: TA98, Metabolic Activation: NONE, Method: STANDARD PLATE) was “inactive; negative”. For the same compound, the mutagenic call (Test System: AMES SALMONELLA TYPHIMURIUM, Strain/Indicator: TA98, Metabolic Activation: RAT LIVER S-9, AROCLOR 1254 (10 OR 30%), Method: PREINCUBATION) was “inactive; negative”, the mutagenic call (Test System: AMES SALMONELLA TYPHIMURIUM, Strain/Indicator: TA98, Metabolic Activation: RAT, LIVER, S-9, AROCLOR 1254 (10%), Method: PREINCUBATION) was “inactive; negative” and the mutagenic call (Test System: AMES SALMONELLA TYPHIMURIUM, Strain/Indicator: TA98, Metabolic Activation: RAT, LIVER, S-9, AROCLOR 1254 (30%), Method: PREINCUBATION) was “inactive; negative”. For the same compound, the mutagenic call (Test System: AMES SALMONELLA TYPHIMURIUM, Strain/Indicator: TA98, Metabolic Activation: RAT, LIVER, S-9, AROCLOR 1254 + 200 UG NORHARMAN, Method: STANDARD PLATE) was “active; positive”, the mutagenic call (Test System: AMES SALMONELLA TYPHIMURIUM, Strain/Indicator: TA98, Metabolic Activation: RAT, LIVER, S-9, AROCLOR 1254, Method: PREINCUBATION) was “inactive; negative” and the mutagenic call (Test System: AMES SALMONELLA TYPHIMURIUM, Strain/Indicator: TA98, Metabolic Activation: RAT, LIVER, S-9, PHENOBARBITAL AND 5,6-BENZOFLAVONE, Method: PREINCUBATION) was “inactive; negative”. For the same compound, the mutagenic call (Test System: AMES SALMONELLA TYPHIMURIUM, Strain/Indicator: TA98, Metabolic Activation: S-9, Method: STANDARD PLATE) was “inactive; negative”, the mutagenic call (Test System: AMES SALMONELLA TYPHIMURIUM, Strain/Indicator: TA100, Metabolic Activation: HAMSTER LIVER S-9, AROCLOR 1254 (10%), Method: PREINCUBATION) was “inactive; negative” and the mutagenic call (Test System: AMES SALMONELLA TYPHIMURIUM, Strain/Indicator: TA100, Metabolic Activation: HAMSTER LIVER S-9, AROCLOR 1254 (30%), Method: PREINCUBATION) was “active; positive”. The mutagenic call (Test System: AMES SALMONELLA TYPHIMURIUM, Strain/Indicator: TA100, Metabolic Activation: HAMSTER, LIVER, S-9, AROCLOR 1254 (10%), Method: PREINCUBATION) was “inactive; negative”, the mutagenic call (Test System: AMES SALMONELLA TYPHIMURIUM, Strain/Indicator: TA100, Metabolic Activation: HAMSTER, LIVER, S-9, AROCLOR 1254 (30%), Method: PREINCUBATION) was “active; positive” and the mutagenic call (Test System: AMES SALMONELLA TYPHIMURIUM, Strain/Indicator: TA100, Metabolic Activation: HAMSTER, LIVER, S-9, SODIUM PHENOBARBITAL AND 5,6-BENZOFLAVONE, Method: PREINCUBATION) was “inactive; negative”. The mutagenic call (Test System: AMES SALMONELLA TYPHIMURIUM, Strain/Indicator: TA100, Metabolic Activation: NONE, Method: PREINCUBATION) was “inactive; negative”, the mutagenic call (Test System: AMES SALMONELLA TYPHIMURIUM, Strain/Indicator: TA100, Metabolic Activation: NONE, Method: STANDARD PLATE) was “inactive; negative” and the mutagenic call (Test System: AMES SALMONELLA TYPHIMURIUM, Strain/Indicator: TA100, Metabolic Activation: RAT LIVER S-9, AROCLOR 1254 (10 OR 30%), Method: PREINCUBATION) was “inactive; negative”. The mutagenic call (Test System: AMES SALMONELLA TYPHIMURIUM, Strain/Indicator: TA100, Metabolic Activation: RAT, LIVER, S-9, AROCLOR 1254 (10%), Method: PREINCUBATION) was “inactive; negative”, the mutagenic call (Test System: AMES SALMONELLA TYPHIMURIUM, Strain/Indicator: TA100, Metabolic Activation: RAT, LIVER, S-9, AROCLOR 1254 (30%), Method: PREINCUBATION) was “inactive; negative” and the mutagenic call (Test System: AMES SALMONELLA TYPHIMURIUM, Strain/Indicator: TA100, Metabolic Activation: RAT, LIVER, S-9, AROCLOR 1254, Method: STANDARD PLATE) was “inactive; negative”. The mutagenic call (Test System: AMES SALMONELLA TYPHIMURIUM, Strain/Indicator: TA100, Metabolic Activation: RAT, LIVER, S-9, PHENOBARBITAL AND 5,6-BENZOFLAVONE, Method: PREINCUBATION) was “inactive; negative”, the mutagenic call (Test System: AMES SALMONELLA TYPHIMURIUM, Strain/Indicator: TA100, Metabolic Activation: S-9, Method: STANDARD PLATE) was “inactive; negative” and the mutagenic call (Test System: AMES SALMONELLA TYPHIMURIUM, Strain/Indicator: TA102, Metabolic Activation: HAMSTER, LIVER, S-9, SODIUM PHENOBARBITAL AND 5,6-BENZOFLAVONE, Method: PREINCUBATION) was “inactive; negative”. For the same compound, the mutagenic call (Test System: AMES SALMONELLA TYPHIMURIUM, Strain/Indicator: TA102, Metabolic Activation: NONE, Method: PREINCUBATION) was “inactive; negative”, the mutagenic call (Test System: AMES SALMONELLA TYPHIMURIUM, Strain/Indicator: TA102, Metabolic Activation: NONE, Method: STANDARD PLATE) was “inactive; negative” and the mutagenic call (Test System: AMES SALMONELLA TYPHIMURIUM, Strain/Indicator: TA102, Metabolic Activation: S-9, Method: STANDARD PLATE) was “inactive; negative”.
